Experimental data from patent US20250179061A1 (SIRONAX LTD., priority 2022, published 2025).

The molecules below were run on HT-29 cells (assay: HT-29 necroptosis cell viability assay (TNF-α/SMAC mimetic/zVAD-FMK, CellTiter-Glo)). Details: Homo sapiens, HT-29, HT-29 necroptosis cell viability, IC50 class symbols; read-out: Activity.
Assay type: cell-based
Summary of the method: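 Necroptosis was triggered by TNF-α (10 ng/ml), SMAC mimetic (6 μM) and zVAD-FMK (10 μM) in serum-free medium during 20 h compound exposure (10 concentrations, threefold steps) of HT-29 cells. IC50 from duplicate dose-responses uses CellTiter-Glo ATP luminescence as viability read-out.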
For `CC1(C#N)CN(c2nccc(Oc3ccc(-n4ncn(Cc5c(F)cccc5F)c4=O)cc3Cl)c2Cl)C1` [Example 256, 1-(3-chloro-4-(2-chloro-4-(4-(2,6-difluorobenzyl)-5-oxo-4,5-dihydro-1H-1,2,4-triazol-1-yl)phenoxy)pyridin-2-yl)-3-methylazetidine-3-carbonitrile], the IC50 was < 100 nM. `CC1(C#N)CN(c2cc(Oc3ccc(-n4ncn(Cc5c(F)cccc5F)c4=O)cc3F)c(Cl)cn2)C1` [Example 257, 1-(5-chloro-4-(4-(4-(2,6-difluorobenzyl)-5-oxo-4,5-dihydro-1H-1,2,4-triazol-1-yl)-2-fluorophenoxy)pyridin-2-yl)-3-methylazetidine-3-carbonitrile] was tested, and the IC50 was < 100 nM. Work on `O=c1n(Cc2c(F)cccc2F)cnn1-c1ccc(Oc2ccnc(NCC3CCOC3)c2)cc1` (centres unmarked) [Example 259, 4-(2,6-difluorobenzyl)-2-(4-((2-(((tetrahydrofuran-3-yl)methyl)amino)pyridin-4-yl)oxy)phenyl)-2,4-dihydro-3H-1,2,4-triazol-3-one] yielded an IC50 of 100 to 1000 nM. `CCOC1CN(c2cc(Oc3ccc(-n4ncn(Cc5c(F)cccc5F)c4=O)cc3Cl)c(Cl)cn2)C1` [Example 260, 2-(3-chloro-4-((5-chloro-2-(3-ethoxyazetidin-1-yl)pyridin-4-yl)oxy)phenyl)-4-(2,6-difluorobenzyl)-2,4-dihydro-3H-1,2,4-triazol-3-one] was tested, and the IC50 was < 100 nM. `CCOC1CN(c2nccc(Oc3ccc(-n4ncn(Cc5c(F)cccc5F)c4=O)cc3)c2Cl)C1` [Example 261, 2-(4-((3-chloro-2-(3-ethoxyazetidin-1-yl)pyridin-4-yl)oxy)phenyl)-4-(2,6-difluorobenzyl)-2,4-dihydro-3H-1,2,4-triazol-3-one] gave an IC50 of 100 to 1000 nM. For `CC1(C#N)CN(c2cc(Oc3ccc(-n4ncn(Cc5c(F)cccc5F)c4=O)cc3F)c(F)cn2)C1` [Example 262, 1-(4-(4-(4-(2,6-difluorobenzyl)-5-oxo-4,5-dihydro-1H-1,2,4-triazol-1-yl)-2-fluorophenoxy)-5-fluoropyridin-2-yl)-3-methylazetidine-3-carbonitrile], the IC50 was < 100 nM. `Cc1cnc(N2CC3(CCOCC3)C2)cc1Oc1ccc(-n2ncn(Cc3c(F)cccc3F)c2=O)cc1` [Example 263, 4-(2,6-difluorobenzyl)-2-(4-((5-methyl-2-(7-oxa-2-azaspiro[3.5]nonan-2-yl)pyridin-4-yl)oxy)phenyl)-2,4-dihydro-3H-1,2,4-triazol-3-one] was tested, and the IC50 was < 100 nM. In the case of `N#CC1CN(c2cc(Oc3ccc(-n4ncn(Cc5c(F)cccc5F)c4=O)cc3)ccn2)CC1O` (centres unmarked) [Example 264, 1-(4-(4-(4-(2,6-difluorobenzyl)-5-oxo-4,5-dihydro-1H-1,2,4-triazol-1-yl)phenoxy)pyridin-2-yl)-4-hydroxypyrrolidine-3-carbonitrile], the IC50 is reported as < 100 nM. In the case of `CC1(CO)CCN(c2cc(Oc3ccc(-n4ncn(Cc5c(F)cccc5F)c4=O)cc3)ccn2)C1` (centres unmarked) [Example 265, 4-(2,6-difluorobenzyl)-2-(4-((2-(3-(hydroxymethyl)-3-methylpyrrolidin-1-yl)pyridin-4-yl)oxy)phenyl)-2,4-dihydro-3H-1,2,4-triazol-3-one], the IC50 is reported as 100 to 1000 nM. `CCOC1CN(c2cc(Oc3ccc(-n4ncn(Cc5c(F)cccc5F)c4=O)cc3)c(C)cn2)C1` [Example 266, 4-(2,6-difluorobenzyl)-2-(4-((2-(3-ethoxyazetidin-1-yl)-5-methylpyridin-4-yl)oxy)phenyl)-2,4-dihydro-3H-1,2,4-triazol-3-one] was tested, and the IC50 was < 100 nM. In the case of `Cc1cnc(NC23CC(C#N)(C2)C3)cc1Oc1ccc(-n2ncn(Cc3c(F)cccc3F)c2=O)cc1Cl` [Example 267, 3-((4-(2-chloro-4-(4-(2,6-difluorobenzyl)-5-oxo-4,5-dihydro-1H-1,2,4-triazol-1-yl)phenoxy)-5-methylpyridin-2-yl)amino)bicyclo[1.1.1]pentane-1-carbonitrile], the IC50 is reported as < 100 nM. For `C[C@H]1CCCN1c1cc(Oc2ccc(-n3ncn(Cc4c(F)cccc4F)c3=O)cc2)ccn1` [Example 268, (S)-4-(2,6-difluorobenzyl)-2-(4-((2-(2-methylpyrrolidin-1-yl)pyridin-4-yl)oxy)phenyl)-2,4-dihydro-3H-1,2,4-triazol-3-one], the IC50 was < 100 nM. For `O=c1n(Cc2c(F)cccc2F)cnn1-c1ccc(Oc2ccnc(N3CCOC4(COC4)C3)c2)cc1` [Example 269, 2-(4-((2-(2,5-dioxa-8-azaspiro[3.5]nonan-8-yl)pyridin-4-yl)oxy)phenyl)-4-(2,6-difluorobenzyl)-2,4-dihydro-3H-1,2,4-triazol-3-one], the IC50 was 100 to 1000 nM. With `N#CC12CC(Nc3cc(Oc4ccc(-n5ncn(Cc6c(F)cccc6F)c5=O)cc4F)c(Cl)cn3)(C1)C2` [Example 270, 3-((5-chloro-4-(4-(4-(2,6-difluorobenzyl)-5-oxo-4,5-dihydro-1H-1,2,4-triazol-1-yl)-2-fluorophenoxy)pyridin-2-yl)amino)bicyclo[1.1.1]pentane-1-carbonitrile] the IC50 was < 100 nM. With `Cc1c(Oc2ccc(-n3ncn(Cc4c(F)cccc4F)c3=O)cc2F)ccnc1NC12CC(C#N)(C1)C2` [Example 271, 3-((4-(4-(4-(2,6-difluorobenzyl)-5-oxo-4,5-dihydro-1H-1,2,4-triazol-1-yl)-2-fluorophenoxy)-3-methylpyridin-2-yl)amino)bicyclo[1.1.1]pentane-1-carbonitrile] the IC50 was < 100 nM. In the case of `N#CC12CC(Nc3cc(Oc4ccc(-n5ncn(Cc6c(F)cccc6F)c5=O)cc4Cl)c(F)cn3)(C1)C2` [Example 272, 3-((4-(2-chloro-4-(4-(2,6-difluorobenzyl)-5-oxo-4,5-dihydro-1H-1,2,4-triazol-1-yl)phenoxy)-5-fluoropyridin-2-yl)amino)bicyclo[1.1.1]pentane-1-carbonitrile], the IC50 is reported as < 100 nM. In the case of `Cc1c(Oc2ccc(-n3ncn(Cc4c(F)cccc4F)c3=O)cc2)ccnc1N1CC2(CCOCC2)C1` [Example 273, 4-(2,6-difluorobenzyl)-2-(4-((3-methyl-2-(7-oxa-2-azaspiro[3.5]nonan-2-yl)pyridin-4-yl)oxy)phenyl)-2,4-dihydro-3H-1,2,4-triazol-3-one], the IC50 is reported as 100 to 1000 nM. In the case of `Cc1cc(-n2ncn(Cc3c(F)cccc3F)c2=O)ccc1Oc1ccnc(N2CC3(CCOCC3)C2)c1` [Example 274, 2-(4-((2-(7-oxa-2-azaspiro[3.5]nonan-2-yl)pyridin-4-yl)oxy)-3-methylphenyl)-4-(2,6-difluorobenzyl)-2,4-dihydro-3H-1,2,4-triazol-3-one], the IC50 is reported as 1000 to 10000 nM. Molecule `O=c1n(Cc2c(F)cccc2F)cnn1-c1ccc(Oc2ccnc(N3CC(OC(F)(F)F)C3)c2)cc1` [Example 275, 4-(2,6-difluorobenzyl)-2-(4-((2-(3-(trifluoromethoxy)azetidin-1-yl)pyridin-4-yl)oxy)phenyl)-2,4-dihydro-3H-1,2,4-triazol-3-one] has an IC50 of 100 to 1000 nM. For `N#CC1CCCN(c2cc(Oc3ccc(-n4ncn(Cc5c(F)cccc5F)c4=O)cc3)ccn2)C1` (centres unmarked) [Example 277, 1-(4-(4-(4-(2,6-difluorobenzyl)-5-oxo-4,5-dihydro-1H-1,2,4-triazol-1-yl)phenoxy)pyridin-2-yl)piperidine-3-carbonitrile], the IC50 was 100 to 1000 nM. `N#CC1(CO)CN(c2cc(Oc3ccc(-n4ncn(Cc5c(F)cccc5F)c4=O)cc3)ccn2)C1` [Example 278, 1-(4-(4-(4-(2,6-difluorobenzyl)-5-oxo-4,5-dihydro-1H-1,2,4-triazol-1-yl)phenoxy)pyridin-2-yl)-3-(hydroxymethyl)azetidine-3-carbonitrile] was tested, and the IC50 was 100 to 1000 nM. Molecule `O=c1n(Cc2c(F)cccc2F)cnn1-c1ccc(Oc2ccnc(NCC3CCO3)c2)cc1` (centres unmarked) [Example 279, 4-(2,6-difluorobenzyl)-2-(4-((2-((oxetan-2-ylmethyl)amino)pyridin-4-yl)oxy)phenyl)-2,4-dihydro-3H-1,2,4-triazol-3-one] has an IC50 of 100 to 1000 nM. `O=c1n(Cc2c(F)cccc2F)cnn1-c1ccc(Oc2ccnc(N3CC(F)(C4CC4)C3)c2)cc1` [Example 280, 2-(4-((2-(3-cyclopropyl-3-fluoroazetidin-1-yl)pyridin-4-yl)oxy)phenyl)-4-(2,6-difluorobenzyl)-2,4-dihydro-3H-1,2,4-triazol-3-one] was tested, and the IC50 was 100 to 1000 nM. For `CC1CN(c2cc(Oc3ccc(-n4ncn(Cc5c(F)cccc5F)c4=O)cc3)ccn2)CC1C#N` (centres unmarked) [Example 281, 1-(4-(4-(4-(2,6-difluorobenzyl)-5-oxo-4,5-dihydro-1H-1,2,4-triazol-1-yl)phenoxy)pyridin-2-yl)-4-methylpyrrolidine-3-carbonitrile], the IC50 was < 100 nM. With `C[C@H]1C[C@@H](C#N)CN1c1cc(Oc2ccc(-n3ncn(Cc4c(F)cccc4F)c3=O)cc2)ccn1` [Example 282, (3R,5S)-1-(4-(4-(4-(2,6-difluorobenzyl)-5-oxo-4,5-dihydro-1H-1,2,4-triazol-1-yl)phenoxy)pyridin-2-yl)-5-methylpyrrolidine-3-carbonitrile] the IC50 was < 100 nM. `O=c1n(Cc2c(F)cccc2F)cnn1-c1ccc(Oc2cc(N3CCOCC3)ncc2F)c(F)c1` [Example 283, 4-(2,6-difluorobenzyl)-2-(3-fluoro-4-((5-fluoro-2-morpholinopyridin-4-yl)oxy)phenyl)-2,4-dihydro-3H-1,2,4-triazol-3-one] was tested, and the IC50 was < 100 nM. In the case of `C[C@H]1C[C@@H](C#N)CN1c1cc(Oc2ccc(-n3ncn(Cc4c(F)cccc4F)c3=O)cc2F)c(F)cn1` [Example 284, (3R,5S)-1-(4-(4-(4-(2,6-difluorobenzyl)-5-oxo-4,5-dihydro-1H-1,2,4-triazol-1-yl)-2-fluorophenoxy)-5-fluoropyridin-2-yl)-5-methylpyrrolidine-3-carbonitrile], the IC50 is reported as < 100 nM. With `O=c1n(Cc2c(F)cccc2F)cnn1-c1ccc(Oc2cncc(N3CC4(CCOCC4)C3)c2)cc1` [Example 285, 2-(4-((5-(7-oxa-2-azaspiro[3.5]nonan-2-yl)pyridin-3-yl)oxy)phenyl)-4-(2,6-difluorobenzyl)-2,4-dihydro-3H-1,2,4-triazol-3-one] the IC50 was < 100 nM. Work on `CC1(C#N)CN(c2cccnc2OCc2ccc(-n3ncn(Cc4c(F)cccc4F)c3=O)cc2)C1` [Example 286, 1-(2-((4-(4-(2,6-difluorobenzyl)-5-oxo-4,5-dihydro-1H-1,2,4-triazol-1-yl)benzyl)oxy)pyridin-3-yl)-3-methylazetidine-3-carbonitrile] yielded an IC50 of 100 to 1000 nM.
